Reference: patent US20240228570A9, “PLATFORM TECHNOLOGY FOR TREATMENT OF INFLAMMATORY, IMMUNOLOGICAL AND/OR AUTOIMMUNOLOGICAL DISEASES” (ellennbe GmbH, priority 2021, published 2024)

Tests used:
[1] = tested on: perfusion of the skin; settings: cited from earlier work
[2] = Adverse side effects, intolerances, incompatibilities in treated subjects and patients; type: in vivo, human; settings: for adverse effects of earlier or basic treatment (patient history): Patient 7, rheumatoid arthritis/synovitis; for earlier treatment with TNF-α inhibitors (patient history): Patient 12, ankylosing spondylitis
[3] = tested on: inflammatory disease, immunological disease and/or autoimmunological disease; test: Treatment of patients: condition as stated by patient and physician (pain, fatigue, daily life, duration of effect, relapses); type: in vivo, human
Procedure: All patients treated in the following Inventive Examples, Reference Examples and Comparative Examples were selected solely based on their diagnosis without performing a preselection in view of other parameters.
Annotation to the Tables 8A and B and 9 to 10: Patients were usually examined and treated in the same session. The success of the treatment or the effect thereof was then determined in the following session, usually one week later, and the next treatment performed as indicated in the tables.

COC(=O)c1cccnc1 [MN, methyl nicotinate]
perfusion response of the skin ([1]; 50 μl of 20 mmol/l MN topical, healthy subjects, Laser Speckle Contrast Imager): reproducible perfusion response | time course of the perfusion increase ([1]; topical application of MN, increase occurs a few minutes after application): reaches a stable plateau phase after five minutes

CN(Cc1cnc2nc(N)nc(N)c2n1)c1ccc(C(=O)N[C@@H](CCC(=O)O)C(=O)O)cc1 [MTX, methotrexate]
adverse effects of earlier or basic treatment (patient history) [2]: severe adverse effects (tendency to fibrosis in the lungs and sinusitis)

CCN(CCO)CCCC(C)Nc1ccnc2cc(Cl)ccc12.O=S(=O)(O)O (stereo not shown) [Quensyl®, hydroxychloroquin sulphate]
adverse effects of earlier or basic treatment (patient history) [2]: can cause irreversible eye damage with long-term use

CC[C@@H]1CN(C(=O)NCC(F)(F)F)C[C@@H]1c1cnc2cnc3[nH]ccc3n12 [upadacitinib]
adverse effects of earlier or basic treatment (patient history) [2]: severe adverse effects (tendency to fibrosis in the lungs and sinusitis)

Enbrel®
earlier treatment with TNF-α inhibitors (patient history) [2]: accompanied by strong adverse side effects and hence, not successful

Remicade®: TNF-α inhibitor
earlier treatment with TNF-α inhibitors (patient history) [2]: accompanied by strong adverse side effects and hence, not successful

Simponi®: biologic, golimumab
effect of earlier treatment with biologics (patient's report) ([3]; Patient 11, ankylosing spondylitis, within half a year the biologics lost their effect): had little effect from the outset

Symponi®: TNF-α inhibitor
earlier treatment with TNF-α inhibitors (patient history) [2]: accompanied by strong adverse side effects and hence, not successful

tocilizumab: IL-6 inhibitor
effectiveness of earlier or basic treatment (patient history) ([3]; Patient 7, rheumatoid arthritis/synovitis, before or beside the treatment of IE 7): only partially efficient
